In patent publication US20160271263A1 (Novo Nordisk A/S, priority 2010, published 2016):
pEC50: −log10 of the molar value. Numbered stars: 1 amine (or outer) side, 2 acyl side, 3 side chain; on linkers, the order of the positions; unused ones are H or OH. Side chains are listed from the residue outwards. Peptide text beside a SMILES is read from it. * marks the point of attachment. C18 diacid = O=C(O)CCCCCCCCCCCCCCCCC(=O)*; γGlu = O=C(O)[C@H](CCC(=O)[*:2])N[*:1]; AEEA = NCCOCCOCC(=O)O

Target: glucagon receptor (Homo sapiens, UniProt P47871)
Test: cell-based

glucagon receptor, sequence (P47871 26-477): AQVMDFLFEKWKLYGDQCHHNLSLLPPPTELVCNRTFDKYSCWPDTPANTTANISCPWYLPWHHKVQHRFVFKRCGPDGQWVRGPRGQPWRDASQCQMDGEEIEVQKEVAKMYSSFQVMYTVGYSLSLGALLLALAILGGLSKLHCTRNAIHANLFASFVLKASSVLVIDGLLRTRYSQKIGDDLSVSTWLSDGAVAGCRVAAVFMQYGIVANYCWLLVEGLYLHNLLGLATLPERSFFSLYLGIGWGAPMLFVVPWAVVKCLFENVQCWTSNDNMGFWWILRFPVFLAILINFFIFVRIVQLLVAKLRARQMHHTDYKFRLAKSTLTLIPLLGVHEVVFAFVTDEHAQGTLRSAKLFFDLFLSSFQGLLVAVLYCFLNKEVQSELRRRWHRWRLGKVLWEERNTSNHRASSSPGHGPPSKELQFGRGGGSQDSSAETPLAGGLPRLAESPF

| pEC50 | Compound |
| --- | --- |
| 9.81 | CC(C)C[C@H](NC(=O)[C@H](Cc1ccc(O)cc1)NC(=O)[C@H](CCCCN)NC(=O)[C@H](CO)NC(=O)[C@H](Cc1ccc(O)cc1)NC(=O)[C@H](CC(=O)O)NC(=O)[C@H](CO)NC(=O)[C@@H](NC(=O)[C@H](Cc1ccccc1)NC(=O)[C@@H](NC(=O)CNC(=O)[C@H](CCC(N)=O)NC(=O)[C@H](CO)NC(=O)[C@@H](N)Cc1c[nH]cn1)[C@@H](C)O)[C@@H](C)O)C(=O)N[C@@H](CC(=O)O)C(=O)N[C@@H](CO)C(=O)N[C@@H](CCCNC(=N)N)C(=O)N[C@@H](CCCNC(=N)N)C(=O)N[C@@H](C)C(=O)N[C@@H](CCC(N)=O)C(=O)N[C@@H](CC(=O)O)C(=O)N[C@@H](Cc1ccccc1)C(=O)N[C@H](C(=O)N[C@@H](CCCCNC(=O)CC[C@H](NC(=O)CC[C@H](NC(=O)COCCOCCNC(=O)COCCOCCNC(=O)CC[C@H](NC(=O)CCCCCCCCCCCCCCCCC(=O)O)C(=O)O)C(=O)O)C(=O)O)C(=O)N[C@@H](Cc1c[nH]c2ccccc12)C(=O)N[C@@H](CC(C)C)C(=O)N[C@@H](CC(C)C)C(=O)N[C@@H](CC(N)=O)C(=O)N1CCC[C@H]1C(=O)O)C(C)C [Example 81, N^ε24-[(4S)-4-carboxy-4-[[(4S)-4-carboxy-4-[[2-[2-[2-[[2-[2-[2-[[(4S)-4-carboxy-4-(17-carboxyheptadecanoylamino)butanoyl]amino]ethoxy]ethoxy]acetyl]amino]ethoxy]ethoxy]acetyl]amino]butanoyl]amino]butanoyl]-[Lys^24,Leu^27,Pro^29]-Glucagon] |
| 9.39 | CSCC[C@H](NC(=O)[C@H](CC(C)C)NC(=O)[C@H](Cc1c[nH]c2ccccc12)NC(=O)[C@H](CCC(N)=O)NC(=O)[C@@H](NC(=O)[C@H](Cc1ccccc1)NC(=O)[C@H](CC(=O)O)NC(=O)[C@H](CCCNC(=N)N)NC(=O)[C@H](C)NC(=O)[C@H](C)NC(=O)[C@H](CCC(N)=O)NC(=O)[C@H](CCC(=O)O)NC(=O)[C@H](CC(=O)O)NC(=O)[C@H](CC(C)C)NC(=O)[C@H](Cc1ccc(O)cc1)NC(=O)[C@H](CCCCN)NC(=O)[C@H](CO)NC(=O)[C@H](Cc1ccc(O)cc1)NC(=O)[C@H](CC(=O)O)NC(=O)[C@H](CO)NC(=O)[C@@H](NC(=O)[C@H](Cc1ccccc1)NC(=O)[C@@H](NC(=O)CNC(=O)[C@H](CCC(N)=O)NC(=O)[C@H](CO)NC(=O)[C@@H](N)Cc1c[nH]cn1)[C@@H](C)O)[C@@H](C)O)C(C)C)C(=O)N[C@@H](CC(N)=O)C(=O)N[C@H](C(=O)N[C@@H](CCCCNC(=O)COCCOCCNC(=O)COCCOCCNC(=O)CC[C@H](NC(=O)CCCCCCCCCCCCCCCCC(=O)O)C(=O)O)C(N)=O)[C@@H](C)O [Example 27, N^α ([Glu^16,Gln^17,Ala^18,Arg^20]Glucagonyl) N^ε-([2-[2-[2-[[2-[2-[2-[[(4S)-5-hydroxy-4-[(18-hydroxy-18-oxooctadecanoyl)amino]-5-oxopentanoyl]amino]ethoxy]ethoxy]acetyl]amino]ethoxy]ethoxy]acetyl]) Lysinyl amide] (H-HSQGTFTSDYSKYLDEQAARDFVQWLMNTK([AEEA-AEEA-γGlu-C18 diacid])-NH2; N-terminus assumed) |
| 10.68 | CC(C)C[C@H](NC(=O)[C@H](Cc1ccc(O)cc1)NC(=O)[C@H](CCCCN)NC(=O)[C@H](CO)NC(=O)[C@H](Cc1ccc(O)cc1)NC(=O)[C@H](CC(=O)O)NC(=O)[C@H](CO)NC(=O)[C@@H](NC(=O)[C@H](Cc1ccccc1)NC(=O)[C@@H](NC(=O)CNC(=O)[C@H](CCC(N)=O)NC(=O)[C@H](CO)NC(=O)[C@@H](N)Cc1c[nH]cn1)[C@@H](C)O)[C@@H](C)O)C(=O)N[C@@H](CC(=O)O)C(=O)N[C@@H](CO)C(=O)N[C@@H](CCCNC(=N)N)C(=O)N[C@@H](CCCNC(=N)N)C(=O)N[C@@H](C)C(=O)N[C@@H](CCC(N)=O)C(=O)N[C@@H](CCC(=O)O)C(=O)N[C@@H](Cc1ccccc1)C(=O)N[C@H](C(=O)N[C@@H](CCCCNC(=O)COCCOCCNC(=O)COCCOCCNC(=O)CC[C@H](NC(=O)CCCCCCCCCCCCCCCCC(=O)O)C(=O)O)C(=O)N[C@@H](Cc1c[nH]c2ccccc12)C(=O)N[C@@H](CC(C)C)C(=O)N[C@@H](CC(C)C)C(=O)N[C@@H](CC(N)=O)C(=O)N[C@H](C(=O)O)[C@@H](C)O)C(C)C [Example 48] |
| 9.94 | CC(C)C[C@H](NC(=O)[C@H](Cc1ccc(O)cc1)NC(=O)[C@H](CCCCN)NC(=O)[C@H](CO)NC(=O)[C@H](Cc1ccc(O)cc1)NC(=O)[C@H](CC(=O)O)NC(=O)[C@H](CO)NC(=O)[C@@H](NC(=O)[C@H](Cc1ccccc1)NC(=O)[C@@H](NC(=O)CNC(=O)[C@H](CCC(N)=O)NC(=O)[C@H](CO)NC(=O)[C@@H](N)Cc1c[nH]cn1)[C@@H](C)O)[C@@H](C)O)C(=O)N[C@@H](CC(=O)O)C(=O)N[C@@H](CO)C(=O)N[C@@H](CCCNC(=N)N)C(=O)N[C@@H](CCCNC(=N)N)C(=O)N[C@@H](C)C(=O)N[C@@H](CCC(N)=O)C(=O)N[C@@H](CC(=O)O)C(=O)N[C@@H](Cc1ccccc1)C(=O)N[C@H](C(=O)N[C@@H](CCC(N)=O)C(=O)N[C@@H](Cc1c[nH]c2ccccc12)C(=O)N[C@@H](CC(C)C)C(=O)N[C@@H](CC(C)C)C(=O)N[C@@H](CCCCNC(=O)COCCOCCNC(=O)COCCOCCNC(=O)CC[C@H](NC(=O)CC[C@H](NC(=O)CC[C@H](NC(=O)CCCCCCCCCCCCCCCCC(=O)O)C(=O)O)C(=O)O)C(=O)O)C(=O)N[C@H](C(=O)O)[C@@H](C)O)C(C)C [Example 67, N^ε28-[2-[2-[2-[[2-[2-[2-[[(4S)-4-carboxy-4-[[(4S)-4-carboxy-4-[[(4S)-4-carboxy-4-(17-carboxyheptadecanoylamino)butanoyl]amino]butanoyl]amino]butanoyl]amino]ethoxy]ethoxy]acetyl]amino]ethoxy]ethoxy]acetyl]-[Leu^27,Lys^28]-Glucagon] |
| 9.35 | CC(C)C[C@H](NC(=O)[C@H](Cc1ccc(O)cc1)NC(=O)[C@H](CCCCN)NC(=O)[C@H](CO)NC(=O)[C@H](Cc1ccc(O)cc1)NC(=O)[C@H](CC(=O)O)NC(=O)[C@H](CO)NC(=O)[C@@H](NC(=O)[C@H](Cc1ccccc1)NC(=O)[C@@H](NC(=O)CNC(=O)[C@H](CCC(N)=O)NC(=O)[C@H](CO)NC(=O)[C@@H](N)Cc1c[nH]cn1)[C@@H](C)O)[C@@H](C)O)C(=O)N[C@@H](CC(=O)O)C(=O)N[C@@H](CCCCNC(=O)CC[C@H](NC(=O)CC[C@H](NC(=O)COCCOCCNC(=O)COCCOCCNC(=O)CC[C@H](NC(=O)CCCCCCCCCCCCCCCCC(=O)O)C(=O)O)C(=O)O)C(=O)O)C(=O)N[C@@H](CCCNC(=N)N)C(=O)N[C@@H](CCCNC(=N)N)C(=O)N[C@@H](C)C(=O)N[C@@H](CCC(N)=O)C(=O)N[C@@H](CCC(=O)O)C(=O)N[C@@H](Cc1ccccc1)C(=O)N[C@H](C(=O)N[C@@H](CCC(N)=O)C(=O)N[C@@H](CCCNC(=N)N)C(=O)N[C@@H](CC(C)C)C(=O)N[C@@H](CC(C)C)C(=O)N[C@@H](CC(N)=O)C(=O)N[C@H](C(=O)O)[C@@H](C)O)C(C)C [Example 100, N^ε16-[(4S)-4-carboxy-4-[[(4S)-4-carboxy-4-[[2-[2-[2-[[2-[2-[2-[[(4S)-4-carboxy-4-(17-carboxyheptadecanoylamino)butanoyl]amino]ethoxy]ethoxy]acetyl]amino]ethoxy]ethoxy]acetyl]amino]butanoyl]amino]butanoyl]-[Lys^16,Glu^21,Arg^25,Leu^27]-Glucagon] (H-HSQGTFTSDYSKYLDK([γGlu-γGlu-AEEA-AEEA-γGlu-C18 diacid])RRAQEFVQRLLNT-OH) |
| 9.82 | CC(C)C[C@H](NC(=O)[C@H](Cc1ccc(O)cc1)NC(=O)[C@H](CCCCN)NC(=O)[C@H](CO)NC(=O)[C@H](Cc1ccc(O)cc1)NC(=O)[C@H](CC(=O)O)NC(=O)[C@H](CO)NC(=O)[C@@H](NC(=O)[C@H](Cc1ccccc1)NC(=O)[C@@H](NC(=O)CNC(=O)[C@H](CCC(N)=O)NC(=O)[C@H](CO)NC(=O)[C@@H](N)Cc1c[nH]cn1)[C@@H](C)O)[C@@H](C)O)C(=O)N[C@@H](CC(=O)O)C(=O)N[C@@H](CO)C(=O)N[C@@H](CCCNC(=N)N)C(=O)N[C@@H](CCC(N)=O)C(=O)N[C@@H](C)C(=O)N[C@@H](CCC(N)=O)C(=O)N[C@@H](CCC(=O)O)C(=O)N[C@@H](Cc1ccccc1)C(=O)N[C@H](C(=O)N[C@@H](CCCCNC(=O)COCCOCCNC(=O)COCCOCCNC(=O)CC[C@H](NC(=O)CCCCCCCCCCCCCCCCC(=O)O)C(=O)O)C(=O)N[C@@H](Cc1c[nH]c2ccccc12)C(=O)N[C@@H](CC(C)C)C(=O)N[C@@H](CC(C)C)C(=O)N[C@@H](CC(N)=O)C(=O)N[C@H](C(=O)O)[C@@H](C)O)C(C)C [Example 49, N^ε24-([2-[2-[2-[[2-[2-[2-[[(4S)-5-hydroxy-4-[(18-hydroxy-18-oxooctadecanoyl)amino]-5-oxopentanoyl]amino]ethoxy]ethoxy]acetyl]amino]ethoxy]ethoxy]acetyl]) [Gln^18,Glu^21,Lys^24,Leu^27] Glucagon] (H-HSQGTFTSDYSKYLDSRQAQEFVK([AEEA-AEEA-γGlu-C18 diacid])WLLNT-OH; N-terminus and C-terminus assumed) |

| Compound | pEC50 |
| --- | --- |
| CC(C)C[C@H](NC(=O)[C@H](Cc1ccc(O)cc1)NC(=O)[C@H](CCCCN)NC(=O)[C@H](CO)NC(=O)[C@H](Cc1ccc(O)cc1)NC(=O)[C@H](CC(=O)O)NC(=O)[C@H](CO)NC(=O)[C@@H](NC(=O)[C@H](Cc1ccccc1)NC(=O)[C@@H](NC(=O)CNC(=O)[C@H](CCC(N)=O)NC(=O)[C@H](CO)NC(=O)[C@@H](N)Cc1c[nH]cn1)[C@@H](C)O)[C@@H](C)O)C(=O)N[C@@H](CC(=O)O)C(=O)N[C@@H](CO)C(=O)N[C@@H](CCCNC(=N)N)C(=O)N[C@@H](CCCNC(=N)N)C(=O)N[C@@H](C)C(=O)N[C@@H](CCC(N)=O)C(=O)N[C@@H](CC(=O)O)C(=O)N[C@@H](Cc1ccccc1)C(=O)N[C@H](C(=O)N[C@@H](CCCCNC(=O)COCCOCCNC(=O)COCCOCCNC(=O)CC[C@H](NC(=O)CCCCCCCCCCCCCCCCC(=O)O)C(=O)O)C(=O)N[C@@H](Cc1ccc(OP(=O)(O)O)cc1)C(=O)N[C@@H](CC(C)C)C(=O)N[C@@H](CC(C)C)C(=O)N[C@@H](CC(N)=O)C(=O)N[C@H](C(=O)O)[C@@H](C)O)C(C)C [Example 56, N^ε24-([2-[2-[2-[[2-[2-[2-[[(4S)-5-hydroxy-4-[(18-hydroxy-18-oxooctadecanoyl)amino]-5-oxopentanoyl]amino]ethoxy]ethoxy]acetyl]amino]ethoxy]ethoxy]acetyl]) [Lys^24, (p)Tyr^25,Leu^27] Glucagon] | 9.77 |
